Target: T1, CFTR (F508del/MF-HBE cells) (Homo sapiens, UniProt P13569, DEL508-508)
T1 construct: human bronchial epithelial (HBE) cells derived from CF subjects heterozygous for F508del and a minimal function CFTR mutation; endogenous in cells; host or cells: primary human bronchial epithelial cells from CF subjects (F508del/MF genotype)
Assay: Ussing chamber assay of CFTR-mediated short-circuit currents (identification of potentiator compounds)
Type: cell-based
Conditions: CFTR-mediated ISC in F508del/MF-HBE cells; incubated 18-24 hours at 37° C. with 10 μM (14S)-8-[3-(2-{dispiro[2.0.2.1]heptan-7-yl}ethoxy)-1H-pyrazol-1-yl]-...-2,2,4-trione, 20% human serum
Protocol: Ussing Chamber Assay of CFTR-Mediated Short-Circuit Currents
Ussing chamber experiments were performed using human bronchial epithelial (HBE) cells derived from CF subjects heterozygous for F508del and a minimal function CFTR mutation (F508del/MF-HBE) and cultured as previously described (Neuberger T, Burton B, Clark H, Van Goor F Methods Mol Biol 2011:741:39-54). After four days the apical media was removed, and the cells were grown at an air liquid interface for >14 days prior to use.
To isolate the CFTR-mediated short-circuit (ISC) current, F508del/MF-HBE grown on Costar® Snapwell™ cell culture inserts were mounted in an Ussing chamber and the transepithelial ISC was measured under voltage-clamp recording conditions (Vhold=0 mV) at 37° C. The basolateral solution contained (in mM) 145 NaCl, 0.83 K2HPO4, 3.3 KH2PO4, 1.2 MgCl2, 1.2 CaCl2), 10 Glucose, 10 HEPES (pH adjusted to 7.4 with NaOH) and the apical solution contained (in mM) 145 NaGluconate, 1.2 MgCl2, 1.2 CaCl2), 10 glucose, 10 HEPES (pH adjusted to 7.4 with NaOH) and 30 μM amiloride to block the epithelial sodium channel. Forskolin (20 μM) was added to the apical surface to activate CFTR, followed by apical addition of a CFTR inhibitor cocktail consisting of BPO, GlyH-101 and CFTR inhibitor 172 (each at 20 μM final assay concentration) to specifically isolate CFTR currents. The CFTR-mediated ISC (μA/cm^2) for each condition was determined from the peak forskolin response to the steady-state current following inhibition.
Identification of Potentiator Compounds
The activity of the CFTR potentiator compounds on the CFTR-mediated ISC was determined in Ussing chamber studies as described above. The F508del/MF-HBE cell cultures were incubated with the potentiator compounds at a range of concentrations in combination with 10 μM (14S)-8-[3-(2-{dispiro[2.0.2.1]heptan-7-yl}ethoxy)-1H-pyrazol-1-yl]-12,12-dimethyl-2λ^6-thia-3,9,11,18,23-pentaazatetracyclo [17.3.1.111,14.05,10]tetracosa-1(22),5,7,9,19(23),20-hexaene-2,2,4-trione for 18-24 hours at 37° C. and in the presence of 20% human serum. The concentration of potentiator compounds and (14S)-8-[3-(2-{dispiro[2.0.2.1]heptan-7-yl}ethoxy)-1H-pyrazol-1-yl]-12,12-dimethyl-2λ^6-thia-3,9,11,18,23-pentaazatetracyclo [17.3.1.111,14.05,10]tetracosa-1(22),5,7,9,19(23),20-hexaene-2,2,4-trione used during the 18-24 hours incubations was kept constant throughout the Ussing chamber measurement of the CFTR-mediated ISC to ensure compounds were present throughout the entire experiment. The efficacy and potency of the putative F508del potentiators was compared to that of the known Vertex potentiator, ivacaftor (N-[2,4-bis(1,1-dimethylethyl)-5-hydroxyphenyl]-1,4-dihydro-4-oxoquinoline-3-carboxamide).

T1 sequence (P13569 with tags, fused parts or gaps DEL508-508): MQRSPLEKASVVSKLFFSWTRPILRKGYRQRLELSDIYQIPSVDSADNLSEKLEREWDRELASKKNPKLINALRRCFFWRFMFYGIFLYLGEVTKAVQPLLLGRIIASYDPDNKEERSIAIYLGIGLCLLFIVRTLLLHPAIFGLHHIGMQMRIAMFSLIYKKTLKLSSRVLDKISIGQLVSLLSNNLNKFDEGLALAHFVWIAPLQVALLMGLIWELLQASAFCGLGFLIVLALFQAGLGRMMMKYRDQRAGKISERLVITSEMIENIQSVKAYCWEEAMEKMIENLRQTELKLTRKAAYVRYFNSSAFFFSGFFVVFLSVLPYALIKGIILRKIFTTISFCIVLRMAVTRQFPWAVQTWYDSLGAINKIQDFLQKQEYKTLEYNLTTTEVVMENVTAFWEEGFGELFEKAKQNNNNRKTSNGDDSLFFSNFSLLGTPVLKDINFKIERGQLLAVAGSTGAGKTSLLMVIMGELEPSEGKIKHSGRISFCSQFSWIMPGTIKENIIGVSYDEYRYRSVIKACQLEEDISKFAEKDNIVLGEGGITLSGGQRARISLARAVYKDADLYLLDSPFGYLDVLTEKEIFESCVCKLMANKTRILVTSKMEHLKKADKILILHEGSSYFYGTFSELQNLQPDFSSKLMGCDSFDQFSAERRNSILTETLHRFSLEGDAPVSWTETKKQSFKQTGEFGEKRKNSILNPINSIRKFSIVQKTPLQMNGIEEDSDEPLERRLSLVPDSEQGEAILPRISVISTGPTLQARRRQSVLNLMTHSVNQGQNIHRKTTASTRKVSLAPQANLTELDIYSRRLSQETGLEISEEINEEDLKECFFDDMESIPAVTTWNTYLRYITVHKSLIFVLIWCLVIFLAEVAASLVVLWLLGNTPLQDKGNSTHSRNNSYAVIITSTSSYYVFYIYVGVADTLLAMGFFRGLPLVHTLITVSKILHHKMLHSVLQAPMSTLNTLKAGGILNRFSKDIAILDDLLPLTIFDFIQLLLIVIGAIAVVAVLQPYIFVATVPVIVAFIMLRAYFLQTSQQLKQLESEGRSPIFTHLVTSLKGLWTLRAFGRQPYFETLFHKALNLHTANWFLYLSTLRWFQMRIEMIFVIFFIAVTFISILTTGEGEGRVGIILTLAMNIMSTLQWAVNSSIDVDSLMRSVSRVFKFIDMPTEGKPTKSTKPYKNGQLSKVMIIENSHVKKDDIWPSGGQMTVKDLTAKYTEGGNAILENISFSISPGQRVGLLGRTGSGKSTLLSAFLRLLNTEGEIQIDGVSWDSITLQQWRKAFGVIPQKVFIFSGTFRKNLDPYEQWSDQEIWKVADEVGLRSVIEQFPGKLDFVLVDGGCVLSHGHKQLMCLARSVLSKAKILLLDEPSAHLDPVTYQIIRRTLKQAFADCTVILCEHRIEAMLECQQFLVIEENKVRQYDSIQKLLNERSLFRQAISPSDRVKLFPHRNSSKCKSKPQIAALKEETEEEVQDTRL

SMILES	EC50
CC1(C)CC2CCCCCC(O)(C(F)(F)F)C3=NN=C(O3)c3nc(c(C(F)(F)F)cc3N)N2C1 (single isomer, unassigned) [Compound 29, 20-amino-14,14-dimethyl-6,18-bis(trifluoromethyl)-22-oxa-3,4,16,21-tetraazatetracyclo[15.3.1.12,5.012,16]docosa-1(21),2,4,17,19-pentaen-6-ol]	< 500 nM
COCCN1CCCCCCC(O)(C(F)(F)F)C2=NN=C(O2)c2nc1c(C(F)(F)F)cc2N (single isomer, unassigned) [Compound 34, 17-amino-13-(2-methoxyethyl)-6,15-bis(trifluoromethyl)-19-oxa-3,4,13,18-tetrazatricyclo[12.3.1.12,5]nonadeca-1(18),2,4,14,16-pentaen-6-ol]	< 500 nM
COCCN1CCCCCCC(O)(C(F)(F)F)C2=NN=C(O2)c2nc1c(C(F)(F)F)cc2N (single isomer, unassigned) [Compound 35, 17-amino-13-(2-methoxyethyl)-6,15-bis(trifluoromethyl)-19-oxa-3,4,13,18-tetrazatricyclo[12.3.1.12,5]nonadeca-1(18),2,4,14,16-pentaen-6-ol]	> 1000 nM
CN1CCCCCCC(O)(C(F)(F)F)C2=NN=C(O2)c2nc1c(S(C)(=O)=O)cc2N (single isomer, unassigned) [Compound 39, 17-amino-13-methyl-15-methylsulfonyl-6-(trifluoromethyl)-19-oxa-3,4,13,18-tetrazatricyclo[12.3.1.12,5]nonadeca-1(18),2,4,14,16-pentaen-6-ol]	< 500 nM
CN1CCCCCCC(O)(C(F)(F)F)C2=NN=C(O2)c2nc1c(S(C)(=O)=O)cc2N (single isomer, unassigned) [Compound 40, 17-amino-13-methyl-15-methylsulfonyl-6-(trifluoromethyl)-19-oxa-3,4,13,18-tetrazatricyclo[12.3.1.12,5]nonadeca-1(18),2,4,14,16-pentaen-6-ol]	500 to 1000 nM
CN1CCN(C)c2nc(c(N)cc2C(F)(F)F)C2=NN=C(O2)C(O)(C(F)(F)F)CCC1=O (single isomer, unassigned) [Compound 44, 17-amino-6-hydroxy-10,13-dimethyl-6,15-bis(trifluoromethyl)-19-oxa-3,4,10,13,18-pentazatricyclo[12.3.1.12,5]nonadeca-1(18),2,4,14,16-pentaen-9-one]	500 to 1000 nM
CC1(O)CCCCC[C@@H]2CCCN2c2nc(c(N)cc2C(F)(F)F)C2=NN=C1O2 (single isomer, unassigned) [Compound 45]	< 500 nM
CCOC(=O)CN1CCCCCCC(O)(C(F)(F)F)C2=NN=C(O2)c2nc1c(C(F)(F)F)cc2N (single isomer, unassigned) [Compound 46, ethyl 2-[17-amino-6-hydroxy-6,15-bis(trifluoromethyl)-19-oxa-3,4,13,18-tetrazatricyclo[12.3.1.12,5]nonadeca-1(18),2,4,14,16-pentaen-13-yl]acetate]	< 500 nM
CNC(=O)CN1CCCCCCC(O)(C(F)(F)F)C2=NN=C(O2)c2nc1c(C(F)(F)F)cc2N (single isomer, unassigned) [Compound 48, 2-[17-amino-6-hydroxy-6,15-bis(trifluoromethyl)-19-oxa-3,4,13,18-tetrazatricyclo[12.3.1.12,5]nonadeca-1(18),2,4,14,16-pentaen-13-yl]-N-methyl-acetamide]	< 500 nM
Cc1cc(N)c2nc1N1CCC[C@H]1CCCCCC(O)(C(F)(F)F)C1=NN=C2O1 (single isomer, unassigned) [Compound 51]	< 500 nM
CC(C)N1CCCCCCC(O)(C(F)(F)F)C2=NN=C(O2)c2nc1c(C(F)(F)F)cc2N (single isomer, unassigned) [Compound 52, 17-amino-13-isopropyl-6,15-bis(trifluoromethyl)-19-oxa-3,4,13,18-tetrazatricyclo[12.3.1.12,5]nonadeca-1(18),2,4,14,16-pentaen-6-ol]	< 500 nM
CC(C)N1CCCCCCC(O)(C(F)(F)F)C2=NN=C(O2)c2nc1c(C(F)(F)F)cc2N (single isomer, unassigned) [Compound 53, 17-amino-13-isopropyl-6,15-bis(trifluoromethyl)-19-oxa-3,4,13,18-tetrazatricyclo[12.3.1.12,5]nonadeca-1(18),2,4,14,16-pentaen-6-ol]	> 1000 nM

The next lines start with the values.

EC50	SMILES
< 500 nM	Nc1cc(C(F)(F)F)c2nc1-c1nnc(o1)C(O)(C(F)(F)F)CCCCCCC1CCCN21 (single isomer, unassigned) [Compound 23, 21-amino-6,19-bis(trifluoromethyl)-23-oxa-3,4,17,22-tetraazatetracyclo[16.3.1.12,5.013,17]tricosa-1(22),2,4,18,20-pentaen-6-ol]
< 500 nM	Nc1cc(C(F)(F)F)c2nc1-c1nnc(o1)C(O)(C(F)(F)F)CCCCCCC1CCCN21 (single isomer, unassigned) [Compound 24, 21-amino-6,19-bis(trifluoromethyl)-23-oxa-3,4,17,22-tetraazatetracyclo[16.3.1.12,5.013,17]tricosa-1(22),2,4,18,20-pentaen-6-ol]
< 500 nM	Nc1cc(C(F)(F)F)c2nc1-c1nnc(o1)C(O)(C(F)(F)F)CCCCCCC1CCCN21 (single isomer, unassigned) [Compound 25, 21-amino-6,19-bis(trifluoromethyl)-23-oxa-3,4,17,22-tetraazatetracyclo[16.3.1.12,5.013,17]tricosa-1(22),2,4,18,20-pentaen-6-ol]
> 1000 nM	Nc1cc(C(F)(F)F)c2nc1-c1nnc(o1)C(O)(C(F)(F)F)CCCCCCC1CCCN21 (single isomer, unassigned) [Compound 26, 21-amino-6,19-bis(trifluoromethyl)-23-oxa-3,4,17,22-tetraazatetracyclo[16.3.1.12,5.013,17]tricosa-1(22),2,4,18,20-pentaen-6-ol]
< 500 nM	Nc1cc(C(F)(F)F)c2nc1-c1nnc(o1)C(O)(C(F)(F)F)CCCC[C@@H]1CCCN21 (single isomer, unassigned) [Compound 32]
> 1000 nM	Nc1cc(C(F)(F)F)c2nc1-c1nnc(o1)C(O)(C(F)(F)F)CCCC[C@@H]1CCCN21 (single isomer, unassigned) [Compound 33]
< 500 nM	Nc1cc(C(F)(F)F)c2nc1-c1nnc(o1)C(O)(C(F)(F)F)CCCC(=O)N1CCN2CC1 (single isomer, unassigned) [Compound 37, 5-amino-11-hydroxy-3,11-bis(trifluoromethyl)-21-oxa-1,8,9,16,22-pentaazatetracyclo[14.2.2.12,6.17,10]docosa-2,4,6(22),7,9-pentaen-15-one]
> 1000 nM	Nc1cc(C(F)(F)F)c2nc1-c1nnc(o1)C(O)(C(F)(F)F)CCCC(=O)N1CCN2CC1 (single isomer, unassigned) [Compound 38, 5-amino-11-hydroxy-3,11-bis(trifluoromethyl)-21-oxa-1,8,9,16,22-pentaazatetracyclo[14.2.2.12,6.17,10]docosa-2,4,6(22),7,9-pentaen-15-one]
< 500 nM	Nc1cc(C(F)(F)F)c2nc1-c1nnc(o1)C(O)(C(F)(F)F)CCCCCCN2CCO (single isomer, unassigned) [Compound 41, 17-amino-13-(2-hydroxyethyl)-6,15-bis(trifluoromethyl)-19-oxa-3,4,13,18-tetrazatricyclo[12.3.1.12,5]nonadeca-1(18),2,4,14,16-pentaen-6-ol]
< 500 nM	Nc1cc(C(F)(F)F)c2nc1-c1nnc(o1)C(O)(C(F)(F)F)CCCCC[C@@H]1COCCN21 (single isomer, unassigned) [Compound 54]
